We go through two molecules from patent US20250241916A1, “TYROSINE KINASE INHIBITORS” (Nuvectis Pharma, Inc., priority 2022, published 2025).

The subject of data set [1] is Cal27 (tongue squamous cell carcinoma) xenograft. In words: Cal27 mouse xenograft model, antitumor efficacy.
Experimental: (§4) Prior to the in-life phase of the study, the animals were weighed and examined for signs of physical disorder. […] Tumor reads were collected every 2 days up to 28 days, starting treatment at 100 mm^3 tumor volume and ending at 2000 mm^3 tumor volume. A t-test was applied to determine the significance of differences in tumor volumes.
(§5) Dose materials were prepared weekly in aliquots and stored frozen at −20° C. until dosing. For enrollment of mice into study, subcutaneous tumor volumes were monitored daily until reaching a minimum palpable tumor volume (˜100 mm3 by caliper) in the required number of mice. […] Following randomization and study cohort assignment, each dose cohort was treated according to dosage and schedule. Mice were euthanized when study end points were reached.
(§6) Tumor volume measurements were performed every 2 days (up to 3 times per week) using a calibrated caliper. Tumor volumes were determined using the formula length (mm)×width (mm)×height (mm)×0.50.
(§7) A tumor volume humane endpoint was reached when a 20% loss in body weight (excluding tumor weight) was observed over a week, or a 15% loss in body weight over 2 to 3 day period, or if a body condition score less than 2 (Body Condition Scoring for scoring guide), or the tumor weight exceeded 10% of the non-tumor bearing body weight (tumor weight was calculated based on tumor height×length×width×0.50×density of 1 g/cm^3) or when the tumor exceeded 2000 mm^3 in size. Body weight measurements were performed every 2 days (up to 3 times per week) during the 28-day treatment period to coincide with tumor volume measurement schedule. A humane endpoint was reached when body weight loss exceeded 20%.
(§8) The abbreviation RTV28 (relative tumor volume, day 28)=[avg. tumor volume D28]/[avg. tumor volume at baseline]. The abbreviation TGI % (percent tumor growth inhibition)=(1−[RTV28 of the treated group]/[RTV28 vehicle])×100.
Data set [2] has as its target T1, full-length human BTK[C481S] (GST-BTK[C481S]) (Homo sapiens, UniProt Q06187, C481S).
T1 construct: made in house
In words: Off-chip Mobility Shift Assay (MSA), tyrosine kinase inhibition, BTK[C481S]. The following applies: for inhibition at 0.5 µM: 0.5 μM compound. The format is biochemical. On the procedure: (§1) Compound A was dissolved in dimethylsulfoxide (DMSO), and further diluted with assay buffer to a final concentration of 0.5 μmol/L. Reference compounds for assay control were prepared similarly. For BTK inhibition studies, full-length human BTK [2-659 (end) amino acids of accession number NP_000052] was expressed as N-terminal GST-fusion protein (103 kDa) using baculovirus expressionsystem. GST-BTK was purified by using glutathione sepharose chromatography. For BTK[C481S] inhibition studies, full-length human BTK [2-659 (end) amino acids and C481S of accession number NP_000052] was expressed as N-terminal GST-fusion protein (103 kDa) using baculovirusexpression system. GST-BTK[C481S] was purified by using glutathione sepharosechromatography.
(§2) A 4× Substrate/ATP/Metal solution was prepared with buffer (20 mmol/L HEPES, 0.01% Triton X-100, 5 mmol/L DTT, pH 7.5), and a 2× kinase solution was also prepared with buffer (20 mmol/L HEPES, 0.01% Triton X-100, 1 mmol/L DTT, pH 7.5). 5 μL of 4× compound solution, 5 μL of 4× Substrate/ATP/Metal solution, and 10 μL of 2× kinase solution were mixed and incubated in a well of polypropylene 384 well microplate for 1 hour at room temperature. 70 μL of Termination Buffer (QuickScout Screening Assist MSA) was added to the well. The reaction mixture was applied to LabChip™ system, and the product and substrate peptide peaks were separated and quantitated. The kinase reaction was evaluated by the product ratio calculated from peak heights of product (P) and substrate (S) peptides (P/(P+S)).
(§3) The readout value of reaction control (complete reaction mixture) was set as a 0% inhibition, and the readout value of background (Enzyme(−)) was set as a 100% inhibition, then the percent inhibition of each test solution was calculated (Table 2).

The subject of data set [3] is KYSE70 (esophageal squamous cell carcinoma) xenograft. In words: KYSE70 mouse xenograft model, antitumor efficacy. The following applies: for Avg. Baseline Tumor Volume: 40 mg/kg.
Experimental: as §4, §5, §6, §7, §8
In data set [4] the target is T2, full-length human BTK (GST-BTK) (Homo sapiens, UniProt Q06187).
T2 construct: made in house
Put plainly: Off-chip Mobility Shift Assay (MSA), tyrosine kinase inhibition, BTK. The following applies: for inhibition at 0.5 µM: 0.5 μM compound. The format is biochemical. On the procedure:
as §1, §2, §3

For data set [5], the system named is pan cancer squamous lines. In words: Sensitivity of cancer cell line panel (102 cell lines) to compound. The format is cell-based. The following applies: FIG. 1, p<0.05. The source says:
Examples of squamous cell carcinomas contemplated herein may include, but are not limited to, cutaneous squamous cell carcinoma, esophageal squamous cell carcinoma, head and neck squamous cell carcinoma, squamous cell carcinoma of the vulva, and lung squamous cell carcinoma.
A shift to the left represents increased sensitivity. Size of circles represents number of cell lines with alteration (minimum of cell lines per alteration).

[6] abbreviates: 40 mg/kg oral once daily, 28 days, p≤0.001 vs vehicle on Day 27.
Setting [7] is: (1-RTV28 treated/RTV28 vehicle)x100, 40 mg/kg oral once daily.
Where [8] appears, read: Day 27, 40 mg/kg oral once daily.
[9] abbreviates: Day 28, 40 mg/kg oral once daily.
Where [10] appears, read: avg. tumor volume D28 / baseline, 40 mg/kg oral once daily.

T2 sequence (Q06187 2-659): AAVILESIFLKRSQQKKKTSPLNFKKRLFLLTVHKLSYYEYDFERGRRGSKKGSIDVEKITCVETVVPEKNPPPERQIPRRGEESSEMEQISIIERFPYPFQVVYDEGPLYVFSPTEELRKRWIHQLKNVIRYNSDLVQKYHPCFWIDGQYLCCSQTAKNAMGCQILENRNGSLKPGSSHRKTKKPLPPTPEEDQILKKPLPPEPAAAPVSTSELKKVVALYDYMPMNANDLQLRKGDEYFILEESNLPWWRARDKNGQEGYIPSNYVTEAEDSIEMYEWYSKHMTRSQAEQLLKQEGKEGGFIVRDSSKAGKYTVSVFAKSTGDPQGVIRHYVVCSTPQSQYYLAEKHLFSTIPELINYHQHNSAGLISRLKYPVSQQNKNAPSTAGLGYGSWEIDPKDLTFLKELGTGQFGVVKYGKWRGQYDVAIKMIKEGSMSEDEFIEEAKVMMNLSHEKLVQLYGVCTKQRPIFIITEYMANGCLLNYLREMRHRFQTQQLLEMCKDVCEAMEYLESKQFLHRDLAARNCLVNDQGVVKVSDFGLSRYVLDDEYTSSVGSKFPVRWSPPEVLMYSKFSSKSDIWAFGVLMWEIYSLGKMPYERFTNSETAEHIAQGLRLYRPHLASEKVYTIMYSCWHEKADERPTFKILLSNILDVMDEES
T1 sequence (Q06187 2-659 C481S): as the sequence (Q06187 2-659) above, with C480S counted along it

For the molecule `COc1cc(-c2nn(CCN3CCC(N(C)C)CC3)c3ncnc(N)c23)ccc1NC(=O)OC(C)(C)C` [Compound A, tert-Butyl (4-(4-amino-1-(2-(4-(dimethylamino)piperidin-1-yl)ethyl)-1H-pyrazolo[3,4-d]pyrimidin-3-yl)-2-methoxyphenyl)carbamate], the “tumor growth inhibition” value in data set [1] (setting [6]) is on record as “substantial TGI”; in data set [3] (setting [6]), “substantial tumor growth inhibition”. In addition, the results for the “Tumor Growth Inhibition (TGI)” value in data set [1] (setting [7]) and in data set [3] (setting [7]) were 86% and 95%, respectively. For the same molecule, the figures for the “average tumor volume on Day 27” value in data set [1] (setting [8]) and in data set [3] (setting [8]) were 91.4 mm3 and 31.5 mm^3, respectively. Further, the “mean percent increase from baseline in body weight” value in data set [1] (setting [8]) was found to be 2.1%; in data set [3] (setting [8]) it was 2.0%. The “Avg. Day 28. Tumor Volume” value in data set [1] (setting [9]) amounted to 91.4 mm^3; in data set [3] (setting [9]), 31.5 mm^3. Besides, the entries for the “Relative Tumor Volume (RTV28)” value in data set [1] (setting [10]) and in data set [3] (setting [10]) were 0.78 and 0.29, respectively. For the same molecule, the “Avg. Baseline Tumor Volume” value was determined as 116.2 mm^3 in data set [1] (baseline, 40 mg/kg oral once daily); 109.8 mm^3 in data set [3] (40 mg/kg oral once daily); 106.0 mm^3 in data set [3] (40 mg/kg oral once daily, listed as Cmpd A). Moreover, the IC50 in data set [2] was determined as 16.3 nM; in data set [4], 12.5 nM. In addition, the inhibition at 0.5 µM in data set [2] came out at 95.1%; in data set [4] it was 96.9%. In data set [3] (Day 27 vs baseline, 40 mg/kg oral once daily), the “decrease in tumor volume from baseline” value is recorded as 71%. In addition, in data set [5], the “sensitivity of pan cancer squamous carcinomas (10logIC50)” value is listed as “high sensitivity”.

Consider `CNC1CCN(CCn2nc(-c3ccc(NC(=O)OC(C)(C)C)c(OC)c3)c3c(N)ncnc32)CC1` [Compound B, tert-butyl (4-(4-amino-1-(2-(4-(methylamino)piperidin-1-yl)ethyl)-1H-pyrazolo[3,4-d]pyrimidin-3-yl)-2-methoxyphenyl) carbamate], for which, in data set [2], the IC50 stood at 16.3 nM and the inhibition at 0.5 µM was 97.5%. Besides, in data set [4], the 50% inhibitory concentration (IC50) worked out at 12.5 nM and the inhibition at 0.5 µM came to 95.6%.

A word on the IC50: it is the midpoint of a concentration-inhibition curve. By inhibition is commonly meant the change of the read-out against control, counted positive when it falls.
